Laboratory results published in PMC6099553, “Novel Structural Insight into Inhibitors of Heme Oxygenase-1 (HO-1) by New Imidazole-Based Compounds: Biochemical and In Vitro Anticancer Activity Evaluation” (Molecules : A Journal of Synthetic Chemistry and Natural …, 2018).
One block for each compound: values may come before it.

Tests used:
[1] = tested on: HO-2; parameters: method as in PMID 23097500; details: Figure 1; cited from earlier work
[2] = tested on: HO-1; parameters: method as in PMID 23097500; details: Figure 1; cited from earlier work
[3] = tested on: LnCap cells; assay: In vitro cytotoxicity, sulforhodamine B assay, LnCap; assay type: cell-based; details: Homo sapiens, hormone-sensitive prostate cancer cells, 72 h, SRB
Experimental: (§1) MDA-MB-231 cells (hormone resistant), MCF-7 (hormone sensitive), PC3 cells (hormone resistant), DU145 cells (hormone resistant), LnCap cells (hormone sensitive), B16, and HEK cells were maintained in complete growth media (DMEM/Ham’s F12 supplemented with 10% fetal bovine serum, […], 100 units/mL penicillin, 100 units/mL of streptomycin, and 2.2 g/L of NaHCO3) at 37 °C in a humidified atmosphere of 5% CO2. For all procedures, cells were harvested using TrypLE Express (Life Technologies, Auckland, New Zealand).
(§2) To test the cytotoxic effect of HO inhibitors, cells (8 × 10^3 cells/well) were seeded into 96-well plates and incubated for 24 h. This was followed by treatment with HO inhibitors at the concentrations 1.1–200 μM (1.1–1000 μM for HEK cells) of compound 1. In addition, the cytotoxicity of doxorubicin (5 μM, 10 μM, and 30 μM) and a combination of doxorubicin 5 μM and 37 μM 1 was assessed using B16 cells. In all experiments, the cells were incubated for 72 h. Following the incubation, cells were fixed using 10% trichloroacetic acid (TCA). Cytotoxicity was determined using the sulforhodamine B assay as previously described. […] Treatments were performed in triplicate and data represents mean of three independent experiments.

[4] = tested on: PC3 cells; assay: In vitro cytotoxicity, sulforhodamine B assay, PC3; assay type: cell-based; details: Homo sapiens, PC-3; hormone-resistant prostate cancer cells, 72 h, SRB
Experimental: as §1, §2

[5] = tested on: DU145 cells; assay: In vitro cytotoxicity, sulforhodamine B assay, DU145; assay type: cell-based; details: Homo sapiens, DU-145; hormone-resistant prostate cancer cells, 72 h, SRB
Experimental: as §1, §2

[6] = tested on: B16 cells; assay: In vitro cytotoxicity, sulforhodamine B assay, B16 (alone and with doxorubicin); assay type: cell-based, murine; details: for IC50: murine melanoma cells, 72 h, SRB
Experimental: as §1
as §2, with “In addition, the cytotoxicity of doxorubicin (5 μM, 10 μM, and 30 μM) and a combination of doxorubicin 5 μM and 37 μM 1 was assessed using B16 cells.” left out
Figure 3 Cytotoxicity of compound 1 against MCF-7 and B16 cells. (A) MCF-7 (hormone-sensitive breast cancer cells) and (B) B16 (melanoma) cells were treated with 1.1–200 μM of compound 1 for 72 h. Control wells were treated with vehicle only (0.2% DMSO). At the end of treatment, cell number was determined using the sulforhodamine B assay. Data are expressed as mean ± SEM (n = 3). Non-linear regression and IC50 values determination were performed using GraphPad Prism 6.
Figure 4 Cytotoxicity of compound 1 in combination with different concentration of doxorubicin (doxo) against B16 cells. Data are expressed as mean ± SEM (n = 3). *** Significant vs. untreated control cells: p < 0.001.

[7] = tested on: MDA-MB-231 cells; assay: In vitro cytotoxicity, sulforhodamine B assay, MDA-MB-231; assay type: cell-based; details: Homo sapiens, hormone-resistant breast cancer cells, 72 h, SRB
Experimental: as §1, §2

[8] = tested on: HEK cells; assay: In vitro cytotoxicity, sulforhodamine B assay, HEK (healthy cells); assay type: cell-based, human
Experimental: as §1, §2

[9] = tested on: MCF-7 cells; assay: In vitro cytotoxicity, sulforhodamine B assay, MCF-7; assay type: cell-based; details: Homo sapiens, MCF7; hormone-sensitive breast cancer cells, 72 h, SRB
Experimental: as §1
To test the cytotoxic effect of HO inhibitors, cells (8 × 10^3 cells/well) were seeded into 96-well plates and incubated for 24 h. This was followed by treatment with HO inhibitors at the concentrations 1.1–200 μM (1.1–1000 μM for HEK cells) of compound 1. In addition, the cytotoxicity of doxorubicin (5 μM, 10 μM, and 30 μM) and a combination of doxorubicin 5 μM and 37 μM 1 was assessed using B16 cells. In all experiments, the cells were incubated for 72 h. Following the incubation, cells were fixed using 10% trichloroacetic acid (TCA). Cytotoxicity was determined using the sulforhodamine B assay as previously described. […]
Figure 3 Cytotoxicity of compound 1 against MCF-7 and B16 cells. […] At the end of treatment, cell number was determined using the sulforhodamine B assay. Data are expressed as mean ± SEM (n = 3). […]

[10] = biological target: T1, HO-1 (Rattus norvegicus, UniProt P06762); assay: HO-1 inhibition, rat spleen microsomal fraction, bilirubin formation; assay type: biochemical; details: for IC50: rat spleen microsomes, mean ± SD, triplicate
T1 construct: selected in order to use the most native (i.e., closest to in vivo) forms of HO-1 and HO-2; from tissue; host or cells: spleen microsomal fraction of male Sprague-Dawley rats
T1 sequence (P06762 1-289): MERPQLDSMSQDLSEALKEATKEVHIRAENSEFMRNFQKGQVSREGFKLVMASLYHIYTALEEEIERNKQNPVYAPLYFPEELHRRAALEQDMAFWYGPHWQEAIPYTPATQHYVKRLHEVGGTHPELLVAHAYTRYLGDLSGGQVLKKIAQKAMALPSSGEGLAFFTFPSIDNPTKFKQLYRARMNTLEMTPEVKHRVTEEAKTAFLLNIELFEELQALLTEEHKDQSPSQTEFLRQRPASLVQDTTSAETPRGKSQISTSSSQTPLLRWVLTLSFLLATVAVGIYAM
Experimental: Inhibition activity assay for HO-1 was performed by extracting the enzyme from the rat spleen microsomal fraction. HO-1 activity was determined by measuring the formation of BR using the difference in absorbance at 464–530 nm, as described in the experimental section. Inhibition activity data are expressed as IC50 (μM) and obtained results are outlined in Table 2, utilizing Azalanstat as a reference compound.
HO-1 and HO-2 were obtained from rat spleen and brain, respectively, as the microsomal fraction prepared by differential centrifugation; the dominance of HO-1 protein in the rat spleen and of HO-2 in the rat brain has been well documented. These particular microsomal preparations were selected in order to use the most native (i.e., closest to in vivo) forms of HO-1 and HO-2. Spleen and brain (Sprague–Dawley rats) microsomal fractions were prepared according to the procedure outlined by Ryter et al.. The experiments reported in the present paper complied with current Italian law and met the guidelines of the Institutional Animal Care and Use Committee of University of Catania (Italy). The experiments were performed in male Sprague–Dawley albino rats (150 g body weight and age 45 d). They had free access to water and were kept at room temperature with a natural photo-period (12 h light-12 h dark cycle). For measuring HO-1 and HO-2 activities, each rat was sacrificed and their spleen and brain were excised and weighed. A homogenate (15%, w/v) of spleens and brains pooled from four rats was prepared in ice-cold HO-homogenizing buffer (50 mM Tris buffer, pH 7.4, containing 0.25 M sucrose) using a Potter–Elvehjem homogenizing system with a Teflon pestle. The microsomal fraction of rat spleen and brain homogenate was obtained by centrifugation at 10,000 rpm for 20 min at 4 °C, followed by centrifugation of the supernatant at 100,000 rpm for 60 min at 4 °C. The 100,000 rpm pellet (microsomes) was resuspended in 100 mM potassium phosphate buffer, pH 7.8, containing 2 mM MgCl2 with a Potter–Elvehjem homogenizing system. The rat spleen and brain microsomal fractions were divided into equal aliquots, placed into microcentrifuge tubes, and stored at −80 °C for up to 2 months. Protein concentration of the microsomal fraction was determined by Lowry method.
(§3) Liver cytosol has been used as a source of biliverdin reductase (BVR). […] The 100,000 rpm supernatant was saved and then stored in small amounts at −80 °C after its protein concentration was measured.
(§4) The HO-1 and HO-2 activities were determined by measuring the BR formation using the difference in absorbance at 464 to 530 nm as described by Ryter et al.. […] After recovering the chloroform phase, the amount of BR formed was measured with a double-beam spectrophotometer as OD464-530 nm (extinction coefficient, 40 mM/cm^−1 for BR). […]

[11] = biological target: T2, HO-2 (Rattus norvegicus, UniProt P23711); assay: HO-2 inhibition, rat brain microsomal fraction, bilirubin formation; assay type: biochemical; details: rat brain microsomes; mean ± SD, triplicate
T2 construct: selected in order to use the most native (i.e., closest to in vivo) forms of HO-1 and HO-2; from tissue; host or cells: brain microsomal fraction of male Sprague-Dawley rats
T2 sequence (P23711 1-315): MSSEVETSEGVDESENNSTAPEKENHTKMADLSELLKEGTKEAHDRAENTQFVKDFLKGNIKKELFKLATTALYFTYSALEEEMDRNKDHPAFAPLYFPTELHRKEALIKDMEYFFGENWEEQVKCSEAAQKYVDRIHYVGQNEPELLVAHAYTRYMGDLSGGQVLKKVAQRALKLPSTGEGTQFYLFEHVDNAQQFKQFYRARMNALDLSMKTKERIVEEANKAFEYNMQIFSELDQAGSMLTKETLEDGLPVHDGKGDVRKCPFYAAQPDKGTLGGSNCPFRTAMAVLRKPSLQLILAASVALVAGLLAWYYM
Experimental: HO-1 and HO-2 were obtained from rat spleen and brain, respectively, as the microsomal fraction prepared by differential centrifugation; the dominance of HO-1 protein in the rat spleen and of HO-2 in the rat brain has been well documented. These particular microsomal preparations were selected in order to use the most native (i.e., closest to in vivo) forms of HO-1 and HO-2. Spleen and brain (Sprague–Dawley rats) microsomal fractions were prepared according to the procedure outlined by Ryter et al.. The experiments reported in the present paper complied with current Italian law and met the guidelines of the Institutional Animal Care and Use Committee of University of Catania (Italy). The experiments were performed in male Sprague–Dawley albino rats (150 g body weight and age 45 d). […] Protein concentration of the microsomal fraction was determined by Lowry method.
as §3, §4

SMILES: Nc1ccc(SC[C@@H]2CO[C@](CCc3ccc(Cl)cc3)(Cn3ccnc3)O2)cc1 [Azalanstat]
IC50 [1]: 24.4 µM | IC50 [2]: 5.3 µM

SMILES: OC(Cn1ccnc1)c1cccc(Br)c1 (stereo not drawn) [Compound 1]
IC50 [3]: 158 ± 2.3 µM | IC50 [4]: 165 ± 2.8 µM | IC50 [5]: 138 ± 2.7 µM | IC50 ([6]; Mus musculus, B16, 72 h): 42 µM | Cytotoxic effect in combination with doxorubicin ([6]; compound 1 (10 μM) with doxorubicin (5 μM), B16 cells): synergistic cytotoxic effect | IC50 [6]: 37 ± 7.25 µM | IC50 [7]: 82.6 ± 0.57 µM | IC50 ([8]; HEK293, non-cancerous human embryonic kidney cells, 72 h, SRB): 364 ± 21.3 µM | Selectivity for cancer cells with respect to healthy cells ([8]; cancer cell lines vs HEK): 2–10 fold | IC50 [9]: 52.6 ± 3.76 µM

IC50 [10]: 80 ± 3.3 µM | fold less potent towards HO-1 than parent compound 1 ([10]; ratio of HO-1 IC50 values): around 200 fold
SMILES: Brc1cccc(C(Cn2ccnc2)OCc2ccccc2)c1 (stereo not drawn) [Compound 2, 1-[2-(3-Bromophenyl)-2-(phenylmethoxy)ethyl]-1H-imidazole]

melting point: 196 to 197 °C | IC50 [11]: 14.4 ± 0.9 µM | IC50 [10]: 28.8 ± 1.4 µM
SMILES: O=C(Cn1ccnc1)NC(c1ccccc1)c1ccccc1 [Compound 3, N-Benzhydryl-2-(1H-imidazol-1-yl)acetamide]

melting point: 182 to 183 °C | IC50 [10]: 67.6 ± 2.1 µM
SMILES: OC(Cn1ccnc1)C12CC3CC(CC(C3)C1)C2 (stereo not drawn) [Compound 4, 2-(1H-Imidazol-1-yl)-1-tricyclo[3.3.1.13,7]dec-1-yl-ethanol]

SMILES: Clc1ccc(CCC2(Cn3ccnc3)OCCO2)cc1 [QC-15]
IC50 [1]: > 100 µM | IC50 [2]: 2.8 µM

SMILES: FC(F)(F)c1ccc(SC[C@@H]2CO[C@@](CCc3ccc(Cl)cc3)(Cn3ccnc3)O2)nc1 [QC-80]
IC50 [1]: 16 µM | IC50 [2]: 2.1 µM

SMILES: O=C(Cn1ccnc1)C12CC3CC(CC(C3)C1)C2 [QC-82]
IC50 [1]: > 100 µM | IC50 [2]: 3 µM

SMILES: O=C(CCc1ccccc1)Cn1cncn1 [QC-86]
IC50 [1]: 18 µM
